Patent US12692269B2, “Therapeutic compounds” (Genentech, Inc., priority 2019, dated 2026)

Experiments:
Format in all cases: binding
[1] = molecular target: TEAD1 YAP50-100 (Homo sapiens, UniProt P28347); assay: TEAD1-YAP HTRF (TR-FRET) protein-protein interaction assay; settings: TEAD1, YAP peptide 50-100, HTRF; for EC50: read-out: TEAD1 YAP50-100 HTRF combined: EC50
Outline: (§1)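 Read-out is the TR-FRET 665 nm/615 nm ratio, which falls when compound disrupts TEAD binding to YAP (aa 50-100) or TAZ (aa 13-57) peptide. Eu anti-His-labelled His-TEAD (aa 217-447) saw compound for 30 min, then peptide/streptavidin-XL665 for 60 min, room temperature.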

[2] = molecular target: TEAD1 TAZ (amino acids 13-57) (Homo sapiens, UniProt P28347); assay: TEAD1-TAZ HTRF (TR-FRET) protein-protein interaction assay; settings: for TEAD1 TAZ HTRF combined: Max % Inhibition: TEAD1, TAZ peptide; for EC50: TEAD1-TAZ HTRF, TR-FRET 665 nm/615 nm, read-out: TEAD1 TAZ HTRF combined: EC50
Outline: as §1

[3] = molecular target: TEAD4 YAP50-100 (Homo sapiens, UniProt Q15561); assay: TEAD4-YAP HTRF (TR-FRET) protein-protein interaction assay; settings: TEAD4, YAP peptide 50-100, HTRF; for EC50: read-out: TEAD4 YAP50-100 HTRF combined: EC50
Outline: as §1

[4] = molecular target: TEAD3 TAZ (amino acids 13-57) (Homo sapiens, UniProt Q99594); assay: TEAD3-TAZ HTRF (TR-FRET) protein-protein interaction assay; settings: for TEAD3 TAZ HTRF combined: Max % Inhibition: TEAD3, TAZ peptide; for EC50: TEAD3-TAZ HTRF, TR-FRET 665 nm/615 nm, read-out: TEAD3 TAZ HTRF combined: EC50
Outline: as §1

[5] = molecular target: TEAD4 TAZ (amino acids 13-57) (Homo sapiens, UniProt Q15561); assay: TEAD4-TAZ HTRF (TR-FRET) protein-protein interaction assay; settings: for TEAD4 TAZ HTRF combined: Max % Inhibition: TEAD4, TAZ peptide; for EC50: TEAD4-TAZ HTRF, TR-FRET 665 nm/615 nm, read-out: TEAD4 TAZ HTRF combined: EC50
Outline: as §1

[6] = molecular target: TEAD2 TAZ (amino acids 13-57) (Homo sapiens, UniProt Q15562); assay: TEAD2-TAZ HTRF (TR-FRET) protein-protein interaction assay; settings: for TEAD2 TAZ HTRF combined: Max % Inhibition: TEAD2, TAZ peptide; for EC50: TEAD2-TAZ HTRF, TR-FRET 665 nm/615 nm, read-out: TEAD2 TAZ HTRF combined: EC50
Outline: as §1

[7] = molecular target: TEAD2 YAP50-100 (Homo sapiens, UniProt Q15562); assay: TEAD2-YAP HTRF (TR-FRET) protein-protein interaction assay; settings: TEAD2, YAP peptide 50-100, HTRF; for EC50: read-out: TEAD2 YAP50-100 HTRF combined: EC50
Outline: as §1

[8] = molecular target: TEAD3 YAP50-100 (Homo sapiens, UniProt Q99594); assay: TEAD3-YAP HTRF (TR-FRET) protein-protein interaction assay; settings: TEAD3, YAP peptide 50-100, HTRF; for EC50: read-out: TEAD3 YAP50-100 HTRF combined: EC50
Outline: as §1

Chain of TEAD2 YAP50-100 (Q15562 217-447): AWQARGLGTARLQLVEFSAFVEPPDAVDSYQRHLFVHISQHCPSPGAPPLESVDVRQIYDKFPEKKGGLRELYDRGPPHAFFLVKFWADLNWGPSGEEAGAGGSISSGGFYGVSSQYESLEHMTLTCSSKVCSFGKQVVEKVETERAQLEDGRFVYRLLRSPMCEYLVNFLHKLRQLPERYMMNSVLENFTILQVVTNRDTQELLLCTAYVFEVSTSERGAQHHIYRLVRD
Chain of TEAD2 TAZ (amino acids 13-57) (Q15562 217-447): as above
Chain of TEAD4 YAP50-100 (Q15561 217-434 limits assumed): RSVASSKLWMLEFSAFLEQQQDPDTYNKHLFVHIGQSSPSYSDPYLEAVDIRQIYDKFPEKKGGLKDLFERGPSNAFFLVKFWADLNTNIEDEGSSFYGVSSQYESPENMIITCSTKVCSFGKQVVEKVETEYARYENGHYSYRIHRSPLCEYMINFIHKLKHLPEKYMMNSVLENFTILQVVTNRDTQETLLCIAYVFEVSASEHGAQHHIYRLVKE
Chain of TEAD4 TAZ (amino acids 13-57) (Q15561 217-434 limits assumed): as above
Chain of TEAD1 YAP50-100 (P28347 167-426 limits assumed): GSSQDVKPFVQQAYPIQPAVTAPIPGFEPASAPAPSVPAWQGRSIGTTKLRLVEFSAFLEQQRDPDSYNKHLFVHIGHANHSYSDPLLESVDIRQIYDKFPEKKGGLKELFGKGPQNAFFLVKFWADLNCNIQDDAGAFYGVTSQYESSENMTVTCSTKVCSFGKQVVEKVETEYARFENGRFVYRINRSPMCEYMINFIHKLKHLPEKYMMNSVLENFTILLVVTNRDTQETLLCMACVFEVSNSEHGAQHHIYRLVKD
Chain of TEAD1 TAZ (amino acids 13-57) (P28347 167-426 limits assumed): as above
Chain of TEAD3 TAZ (amino acids 13-57) (Q99594 173-435 limits assumed): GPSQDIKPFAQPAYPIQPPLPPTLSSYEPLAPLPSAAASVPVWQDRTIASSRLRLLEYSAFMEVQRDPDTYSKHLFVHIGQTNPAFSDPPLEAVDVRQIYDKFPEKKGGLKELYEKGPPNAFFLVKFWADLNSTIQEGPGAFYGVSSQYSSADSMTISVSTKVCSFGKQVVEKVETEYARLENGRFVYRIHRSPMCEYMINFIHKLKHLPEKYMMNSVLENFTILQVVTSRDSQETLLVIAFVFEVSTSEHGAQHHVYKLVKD
Chain of TEAD3 YAP50-100 (Q99594 173-435 limits assumed): as above

C[C@@H]1[C@H](CF)CN1C(=O)c1c(-c2ncccn2)nn2c(=O)cc(-c3ccc(CC4CCCC4)cc3)[nH]c12 (single isomer, unassigned) [Isomer B, Example 43]
TEAD1 YAP50-100 HTRF combined: Max % Inhibition [1]: 65.0%
EC50 [1]: 50 nM
TEAD1 TAZ HTRF combined: Max % Inhibition [2]: 60.0%
EC50 [2]: 50 nM
TEAD4 YAP50-100 HTRF combined: Max % Inhibition [3]: 51.0%
EC50 [3]: 370 nM
TEAD3 TAZ HTRF combined: Max % Inhibition [4]: 65.5%
EC50 [4]: 150 nM
TEAD4 TAZ HTRF combined: Max % Inhibition [5]: 50.0%
EC50 [5]: 270 nM
TEAD2 TAZ HTRF combined: Max % Inhibition [6]: 71.5%
EC50 [6]: 20 nM
TEAD2 YAP50-100 HTRF combined: Max % Inhibition [7]: 73.0%
EC50 [7]: 20 nM
TEAD3 YAP50-100 HTRF combined: Max % Inhibition [8]: 66.0%
EC50 [8]: 140 nM

C[C@H]1[C@@H](CF)CN1C(=O)c1c(-c2cnccn2)nn2c(=O)cc(-c3ccc(CC4CCCC4)cc3)[nH]c12 (single isomer, unassigned) [Isomer B, Example 44, Cis-5-(4-(cyclopentylmethyl)phenyl)-3-(3-(fluoromethyl)-2-methylazetidine-1-carbonyl)-2-(pyrazin-2-yl)pyrazolo[1,5-a]pyrimidin-7(4H)-one]
TEAD1 YAP50-100 HTRF combined: Max % Inhibition [1]: 69.0%
EC50 [1]: 30 nM
TEAD1 TAZ HTRF combined: Max % Inhibition [2]: 59.5%
EC50 [2]: 40 nM
TEAD4 YAP50-100 HTRF combined: Max % Inhibition [3]: 50.5%
EC50 [3]: 20 nM
TEAD3 TAZ HTRF combined: Max % Inhibition [4]: 56.0%
EC50 [4]: 50 nM
TEAD4 TAZ HTRF combined: Max % Inhibition [5]: 52.0%
EC50 [5]: 20 nM
TEAD2 TAZ HTRF combined: Max % Inhibition [6]: 67.5%
EC50 [6]: 10 nM
TEAD2 YAP50-100 HTRF combined: Max % Inhibition [7]: 70.0%
EC50 [7]: 10 nM
TEAD3 YAP50-100 HTRF combined: Max % Inhibition [8]: 61.5%
EC50 [8]: 50 nM

CN(C)C(=O)c1nn2c(=O)cc(-c3ccc(C4CCCCC4)cc3)[nH]c2c1C(=O)N1CC(CF)C1 [Compound 1, 5-(4-Cyclohexylphenyl)-3-(3-(fluoromethyl)azetidine-1-carbonyl)-N,N-dimethyl-7-oxo-4,7-dihydropyrazolo[1,5-a]pyrimidine-2-carboxamide]
TEAD1 YAP50-100 HTRF combined: Max % Inhibition [1]: 70.0%
EC50 [1]: 90 nM
TEAD1 TAZ HTRF combined: Max % Inhibition [2]: 61.2%
EC50 [2]: 90 nM
TEAD4 YAP50-100 HTRF combined: Max % Inhibition [3]: 55.3%
EC50 [3]: 330 nM
TEAD3 TAZ HTRF combined: Max % Inhibition [4]: 63.0%
EC50 [4]: 170 nM
TEAD4 TAZ HTRF combined: Max % Inhibition [5]: 40.3%
EC50 [5]: 600 nM
TEAD2 TAZ HTRF combined: Max % Inhibition [6]: 69.2%
EC50 [6]: 10 nM
TEAD2 YAP50-100 HTRF combined: Max % Inhibition [7]: 74.4%
EC50 [7]: 10 nM
TEAD3 YAP50-100 HTRF combined: Max % Inhibition [8]: 75.3%
EC50 [8]: 110 nM

CN(C)C(=O)c1nn2c(=O)cc(-c3ccc(CC4CCCC4)cc3)[nH]c2c1C(=O)N1CC(CF)C1 [Compound 2, 5-(4-(Cyclopentylmethyl)phenyl)-3-(3-(fluoromethyl)azetidine-1-carbonyl)-N,N-dimethyl-7-oxo-4,7-dihydropyrazolo[1,5-a]pyrimidine-2-carboxamide]
TEAD1 YAP50-100 HTRF combined: Max % Inhibition [1]: 62.0%
EC50 [1]: 60 nM
TEAD1 TAZ HTRF combined: Max % Inhibition [2]: 47.0%
EC50 [2]: 70 nM
TEAD4 YAP50-100 HTRF combined: Max % Inhibition [3]: 51.5%
EC50 [3]: 470 nM
TEAD3 TAZ HTRF combined: Max % Inhibition [4]: 44.0%
EC50 [4]: 120 nM
TEAD4 TAZ HTRF combined: Max % Inhibition [5]: 42.0%
EC50 [5]: 330 nM
TEAD2 TAZ HTRF combined: Max % Inhibition [6]: 66.5%
EC50 [6]: 10 nM
TEAD2 YAP50-100 HTRF combined: Max % Inhibition [7]: 68.0%
EC50 [7]: 10 nM
TEAD3 YAP50-100 HTRF combined: Max % Inhibition [8]: 60.5%
EC50 [8]: 120 nM

CN(C)C(=O)c1nn2c(=O)cc(-c3cc(F)c(C4CCCCC4)c(F)c3)[nH]c2c1C(=O)N1CC(CF)C1 [Compound 3, 5-(4-Cyclohexyl-3,5-difluorophenyl)-3-(3-(fluoromethyl)azetidine-1-carbonyl)-N,N-dimethyl-7-oxo-4,7-dihydropyrazolo[1,5-a]pyrimidine-2-carboxamide]
TEAD1 YAP50-100 HTRF combined: Max % Inhibition [1]: 55.0%
EC50 [1]: 60 nM
TEAD1 TAZ HTRF combined: Max % Inhibition [2]: 44.0%
EC50 [2]: 90 nM
TEAD4 YAP50-100 HTRF combined: Max % Inhibition [3]: 39.5%
EC50 [3]: 210 nM
TEAD3 TAZ HTRF combined: Max % Inhibition [4]: 44.0%
EC50 [4]: 190 nM
TEAD4 TAZ HTRF combined: Max % Inhibition [5]: 29.0%
EC50 [5]: 170 nM
TEAD2 TAZ HTRF combined: Max % Inhibition [6]: 55.0%
EC50 [6]: 10 nM
TEAD2 YAP50-100 HTRF combined: Max % Inhibition [7]: 56.5%
EC50 [7]: 10 nM
TEAD3 YAP50-100 HTRF combined: Max % Inhibition [8]: 66.5%
EC50 [8]: 230 nM

CN(C)C(=O)c1nn2c(=O)cc(-c3ccc(C4CCCCC4)c(F)c3)[nH]c2c1C(=O)N1CC(CF)C1 [Compound 4, 5-(4-Cyclohexyl-3-fluorophenyl)-3-(3-(fluoromethyl)azetidine-1-carbonyl)-N,N-dimethyl-7-oxo-4,7-dihydropyrazolo[1,5-a]pyrimidine-2-carboxamide]
TEAD1 YAP50-100 HTRF combined: Max % Inhibition [1]: 69.0%
EC50 [1]: 40 nM
TEAD1 TAZ HTRF combined: Max % Inhibition [2]: 59.0%
EC50 [2]: 50 nM
TEAD4 YAP50-100 HTRF combined: Max % Inhibition [3]: 48.5%
EC50 [3]: 200 nM
TEAD3 TAZ HTRF combined: Max % Inhibition [4]: 59.0%
EC50 [4]: 80 nM
TEAD4 TAZ HTRF combined: Max % Inhibition [5]: 36.0%
EC50 [5]: 150 nM
TEAD2 TAZ HTRF combined: Max % Inhibition [6]: 64.5%
EC50 [6]: 10 nM
TEAD2 YAP50-100 HTRF combined: Max % Inhibition [7]: 64.0%
EC50 [7]: 10 nM
TEAD3 YAP50-100 HTRF combined: Max % Inhibition [8]: 69.0%
EC50 [8]: 70 nM

C[C@H]1[C@@H](CF)CN1C(=O)c1c(C(=O)N(C)C)nn2c(=O)cc(-c3ccc(C4CCCCC4)cc3)[nH]c12 [Compound 5, 5-(4-Cyclohexylphenyl)-3-((2S,3S)-3-(fluoromethyl)-2-methylazetidine-1-carbonyl)-N,N-dimethyl-7-oxo-4,7-dihydropyrazolo[1,5-a]pyrimidine-2-carboxamide]
TEAD1 YAP50-100 HTRF combined: Max % Inhibition [1]: 73.0%
EC50 [1]: 80 nM
TEAD1 TAZ HTRF combined: Max % Inhibition [2]: 62.0%
EC50 [2]: 70 nM
TEAD4 YAP50-100 HTRF combined: Max % Inhibition [3]: 56.0%
EC50 [3]: 250 nM
TEAD3 TAZ HTRF combined: Max % Inhibition [4]: 66.5%
EC50 [4]: 140 nM
TEAD4 TAZ HTRF combined: Max % Inhibition [5]: 41.0%
EC50 [5]: 170 nM
TEAD2 TAZ HTRF combined: Max % Inhibition [6]: 78.5%
EC50 [6]: 10 nM
TEAD2 YAP50-100 HTRF combined: Max % Inhibition [7]: 83.0%
EC50 [7]: 10 nM
TEAD3 YAP50-100 HTRF combined: Max % Inhibition [8]: 75.5%
EC50 [8]: 130 nM
